Data published in PMC4462073 (BMC Evolutionary Biology, 2015).

Biological target: T1, PriA_Blon (Bifidobacterium longum, UniProt Q8G4S5)
T1 sequence (Q8G4S5 1-241): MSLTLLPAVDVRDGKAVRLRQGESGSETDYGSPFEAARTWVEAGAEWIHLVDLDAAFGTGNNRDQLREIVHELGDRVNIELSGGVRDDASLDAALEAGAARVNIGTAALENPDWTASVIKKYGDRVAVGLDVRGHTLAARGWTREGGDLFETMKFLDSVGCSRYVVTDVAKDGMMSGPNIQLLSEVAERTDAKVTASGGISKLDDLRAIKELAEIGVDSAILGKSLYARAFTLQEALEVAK
Assay: steady-state kinetics, PRA isomerase
Format: biochemical
Settings: read-out: In vitro activity^a / PRA isomerase (TrpF) / K M μM

Km: 6.1 ± 0.1 µM
Compound: O=C(O)c1ccccc1N[C@@H]1O[C@H](COP(=O)(O)O)[C@@H](O)[C@H]1O [PRA, N’-(5′-phosphoribosyl) anthranilate]
